Results on 16 compounds are retold here after patent US5508419A, “Substituted triazoles as angiotensin II inhibitors” (Ortho Pharmaceutical Corporation, priority 1994, dated 1996).

The structures appear in SMILES notation.

In assay [1] the target is T1, angiotensin II receptor (angiotensin II-induced vasoconstriction in in vitro aortic rings) (Oryctolagus cuniculus, UniProt P34976).
T1 construct: thoracic aorta gently dissected free from the aortic root to the level of the diaphragm; from tissue; host or cells: rabbit (New Zealand white) thoracic aorta rings
T1 sequence (P34976 1-359): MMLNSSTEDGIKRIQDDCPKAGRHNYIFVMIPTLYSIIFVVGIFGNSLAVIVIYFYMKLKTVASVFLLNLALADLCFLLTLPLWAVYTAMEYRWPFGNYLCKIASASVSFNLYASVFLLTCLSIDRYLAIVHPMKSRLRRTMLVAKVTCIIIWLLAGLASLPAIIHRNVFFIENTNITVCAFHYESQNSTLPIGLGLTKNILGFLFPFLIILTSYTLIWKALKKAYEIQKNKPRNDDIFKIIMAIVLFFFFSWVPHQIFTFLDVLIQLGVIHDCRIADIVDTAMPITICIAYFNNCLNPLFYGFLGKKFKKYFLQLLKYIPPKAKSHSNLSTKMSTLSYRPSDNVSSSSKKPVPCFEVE
As to the kind of experiment: Inhibition of Angiotensin II Dose-Response in Rabbit Thoracic Aorta. Conditions: for Kb / pA2: rabbit thoracic aorta, negative logarithm of antagonist concentration causing 2-fold shift to the right of agonist potency; for Kb: read-out: pA2 (converted); for inhibition at 10 µM: read-out: % Inhib. @ 10 uM. The assay is classed as cell-based, rabbit (New Zealand white). From the text:
Inhibition of Angiotensin II Dose-Response in Rabbit Thoracic Aorta
Purpose: To identify competitive receptor antagonists of an angiotensin II-activity, 1 activity i.e., angiotensin II-induced vasoconstriction in in vitro aortic rings.
Procedure: 1.8 to 2.3 kg New Zealand white rabbits are sacrificed with an intravenous sodium pentobarbital overdose and the thoracic aorta gently dissected free from the aortic root to the level of the diaphragm, into ice cold Krebs bicarbonate buffer. The aorta is gently freed of clots and adventitia and cleanly cut with a scalpel into 5 mm segments. Each dng is suspended from a Gould isotonic force transducer in a tissue bath containing 15 mL oxygenated Krebs bicarbonate buffer regulated at 37° C. Initial tension is adjusted to 4.0 g and equilibrated over three 20-min wash periods to achieve a baseline tension of 3.0 g. Graded angiotensin II doses are given cumulatively to achieve a maximal contraction. Three 20-min washes are pedormed to remove the initial angiotensin II effect. The test compound is then given at a screening concentration of 1.0×10^-5 M. After observing any effects of the test compound alone, the angiotensin II cumulative dose-response is then repeated in the presence of the test compound.
Analysis: Angiotensin II vasoconstdctor tension in grams is expressed as a percent of maximal contraction for the before and after test compound angiotensin II dose-responses. Angiotensin II ED50 and ED90 is determined from the angiotensin II dose-response curves generated before and after test compound.
Controls: Test compounds are dissolved in DMSO vehicle and DMSO vehicle alone is tested in two rings as a vehicle control in each screening experiment.
pA2 is the negative logarithm of the antagonist concentration that causes a 2-fold shift to the right (i.e. decrease) in the potency of the agonist or the negative logarithm of the antagonist concentration that cuts the potency of the agonist in half.

The test system of the next assay is plasma renin activity. Kind of assay: Plasma renin activity (PRA, RIA) in salt-depleted rats. The format is in vivo, rat (Sprague-Dawley). As to conditions: after DuP-753 treatment of salt-depleted rats, 0.7 before and about 7.4 after salt depletion.
The test system of a further assay is angiotensin II receptor. As to the kind of experiment: Screening Potential Angiotensin II Receptor Antagonists in Salt-Depleted Normotensive Rats (blood pressure). The format is in vivo, rat (Sprague-Dawley). As to the method: Method; Male 350-450 g Sprague-Dawley rats are implanted with teflon microcannulae via the middle caudal artery under 20 mg/kg intravenous brevital anesthesia and permitted a 4-7 day surgical recovery period. Throughout recovery and testing animals are individually housed unrestrained in standard rat metabolism cages and receive continuous 0.5 ml/h intra-arterial 0.25N saline infusion through a spring-shielded swivelling tether connected to an infusion/blood pressure recording system to maintain arterial cannula patency. […] […] Three hours after the second furosemide dose, rats are given test compound uniformly suspended in 1% methylcellulose (n=3/dose level) or 1 mL 1% methylcellulose vehicle (n=3) orally by gavage and blood pressure is continuously recorded for 24 h using a Buxco computerized data recording system. Compound-induced changes in blood pressure are compared to concurrent vehicle control blood pressures in order to detect drug effect.
Interpretation: Prior to salt depletion, normotensive rats typically show a plasma renin activity (PRA, ng angiotensin I/mL plasma/h, RIA) of 0.7. After the salt-depletion protocol PRA values taken 3 h after the furosemide dose have risen to about 7.4.
Compounds that decrease blood pressure 10 or more mmHg (MAP) compared to concurrent control after oral dosing are considered active in this test. Maximum possible response is about -35 mmHg. […]

On to `CCCCc1nc(SCc2ccc(-c3ccccc3C(=O)O)cc2)nn1Cc1ccc(-c2ccccc2C(=O)O)cc1` [Compound 2, Disodium 5-Butyl-1,3-bis-[4-(2'-carboxyphenyl)benzyl]mercapto-1,2,4-triazole], for which, in assay [1], the Kb was 0.00324 µM and the inhibition at 10 µM was 100%. In the same order, the values of `CC(C)Cc1nc(SCc2ccc(-c3ccccc3C(=O)O)cc2)nn1Cc1ccc(-c2ccccc2C(=O)O)cc1` [Compound 4, Sodium 5-isobutyl-1,3-bis-[4-(2'-carboxyphenyl)benzyl]mercapto-1,2,4-triazole] are 0.0324 µM and 100%. `CCCCCc1nc(SCc2ccc(-c3ccccc3C(=O)O)cc2)nn1Cc1ccc(-c2ccccc2C(=O)O)cc1` [Compound 6, 5-Pentyl-1,3-bis-[4-(2'-carboxyphenyl)benzyl]mercapto-1,2,4-triazole]: in assay [1], the pA2 was 8.39 and the inhibition at 10 µM was 100%. Take `CCCCCCc1nc(SCc2ccc(-c3ccccc3C(=O)OC)cc2)nn1Cc1ccc(-c2ccccc2C(=O)OC)cc1` [Compound 8, 5-Hexyl-1,3-bis-[4-(2'-carbomethoxyphenyl)benzyl]mercapto-1,2,4-triazole]: in assay [1], the Kb was 0.011 µM and the inhibition at 10 µM turned out to be 100%.

As for `CCCCCCCc1nc(SCc2ccc(-c3ccccc3C(=O)OC)cc2)nn1Cc1ccc(-c2ccccc2C(=O)OC)cc1` [Compound 9, 5-Heptyl-1,3-bis-[4-(2'-carbomethoxyphenyl)benzyl]mercapto-1,2,4-triazole], the inhibition at 10 µM in assay [1] came to 2%.

As to `CCCCCCCc1nc(SCc2ccc(-c3ccccc3C(=O)O)cc2)nn1Cc1ccc(-c2ccccc2C(=O)O)cc1` [Compound 10, 5-Heptyl-1,3-bis-[4-(2'-carboxyphenyl)benzyl]mercapto-1,2,4-triazole], in assay [1], the Kb was 0.186 µM and the inhibition at 10 µM turned out to be 97%.

In the case of `CCCCCc1nc(SCc2ccc(-c3ccccc3C#N)cc2)nn1Cc1ccc(-c2ccccc2C(=O)O)cc1` [Compound 12], the inhibition at 10 µM in assay [1] was determined as 79%. Consider `CCCCCc1nc(SCc2ccc(-c3ccccc3C(=O)OC)cc2)nn1Cc1ccc(-c2ccccc2-c2nn[nH]n2)cc1` [Compound 16, 3-[4-(2'-Carbomethoxyphenyl)benzyl]mercapto-5-pentyl-1-[4-(2'-tetrazolophenyl)benzyl]-1,2,4-triazole hemihydrate], for which the Kb in assay [1] was 10 µM. For `CCCCCc1nc(SCc2ccc(-c3ccccc3C(=O)OC)cc2)n(Cc2ccc(-c3ccccc3C(=O)OC)cc2)n1` [Compound 21, 5-Pentyl-2,3-bis-[4-(2'-carbomethoxyphenyl)benzyl]mercapto-1,2,4-triazole], in assay [1], the inhibition at 10 µM was 4%. For the compound `CCCCCc1nc(SCc2ccc(-c3ccccc3C(=O)O)cc2)n(Cc2ccc(-c3ccccc3C(=O)O)cc2)n1` [Compound 23, 5-Pentyl-2,3-bis-[4-(2'-carboxyphenyl)benzyl]mercapto-1,2,4-triazole], in assay [1], the pA2 is 7.19 and the inhibition at 10 µM amounted to 100%. Consider `CCCCCCCc1nc(SCc2ccc(-c3ccccc3C(=O)OC)cc2)n(Cc2ccc(-c3ccccc3C(=O)OC)cc2)n1` [Compound 25, 5-Heptyl-2,3-bis-[4-(2'-carbomethoxyphenyl)benzyl]mercapto-1,2,4-triazole], for which, in assay [1], the inhibition at 10 µM came out at 1%. As to `CCCCCCCc1nc(SCc2ccc(-c3ccccc3C(=O)O)cc2)n(Cc2ccc(-c3ccccc3C(=O)O)cc2)n1` [Compound 26], in assay [1], the pA2 amounted to 5.88 and the inhibition at 10 µM is 48%. Take `CCCCCCCCc1nc(S(=O)(=O)Cc2ccc(-c3ccccc3C(=O)O)cc2)nn1Cc1ccc(-c2ccccc2C(=O)O)cc1` [Compound 38, 1-[(2'-Carboxyphenyl)benzyl]-3-[(2'-carboxyphenyl)benzylsulfonyl]-5-octyl-1,2,4-triazole hydrate]: in assay [1], the Kb was 0.813 µM and the inhibition at 10 µM was found to be 87%. For `CCCCCCCc1nc(S(=O)(=O)Cc2ccc(-c3ccccc3C(=O)O)cc2)nn1Cc1ccc(-c2ccccc2C(=O)O)cc1` [Compound 39, 1-[(2'-Carboxyphenyl)benzyl]-3-[(2'-carboxyphenyl)benzylsulfonyl]-5-heptyl-1,2,4-triazole hydrate], in assay [1], the Kb is 0.324 µM and the inhibition at 10 µM came out at 89%. Taken in the same sequence, the figures for `CCCCCCc1nc(S(=O)(=O)Cc2ccc(-c3ccccc3C(=O)O)cc2)nn1Cc1ccc(-c2ccccc2C(=O)O)cc1` [Compound 40, 1-[(2'-Carboxyphenyl)benzyl]-3-[(2'-carboxyphenyl)benzylsulfonyl]-5-hexyl-1,2,4-triazole 0.5 hydrate] were 0.00891 µM and 100%. In the case of `CCCCc1nc(Cl)c(CO)n1Cc1ccc(-c2ccccc2-c2nn[nH]n2)cc1` [DuP-753], the “plasma renin activity (PRA)” value in the assay with plasma renin activity was “about 41.4 ng angiotensin I/mL plasma/h”. The blood pressure change entry in the assay on angiotensin II receptor (normotensive rats that have not been salt-depleted) is given as “does not change”. Also, the “blood pressure decrease (mean arterial pressure, MAP)” value in the assay with angiotensin II receptor (salt-depleted rats (furosemide, low sodium diet), typical response) is recorded as “about 35 mmHg”.

What is called pA2 is the negative logarithm of the molar antagonist concentration that doubles the agonist concentration needed for the same response.
